{"source": "paper PMC8688955", "about": "(Frontiers in Pharmacology, 2021)", "key": {"CI-AMPARs": {"biological_target": "T1, CI-AMPARs (Rattus norvegicus, UniProt P19491, Q607R)", "T1 construct": "activity against native calcium-permeable AMPA receptors (CP-AMPARs) and calcium-impermeable AMPA receptors (CI-AMPARs); endogenous in cells; host or cells: acutely isolated pyramidal neurons from the CA1 area of Wistar rat hippocampal slices", "T1 sequence (P19491 22-883 Q607R)": "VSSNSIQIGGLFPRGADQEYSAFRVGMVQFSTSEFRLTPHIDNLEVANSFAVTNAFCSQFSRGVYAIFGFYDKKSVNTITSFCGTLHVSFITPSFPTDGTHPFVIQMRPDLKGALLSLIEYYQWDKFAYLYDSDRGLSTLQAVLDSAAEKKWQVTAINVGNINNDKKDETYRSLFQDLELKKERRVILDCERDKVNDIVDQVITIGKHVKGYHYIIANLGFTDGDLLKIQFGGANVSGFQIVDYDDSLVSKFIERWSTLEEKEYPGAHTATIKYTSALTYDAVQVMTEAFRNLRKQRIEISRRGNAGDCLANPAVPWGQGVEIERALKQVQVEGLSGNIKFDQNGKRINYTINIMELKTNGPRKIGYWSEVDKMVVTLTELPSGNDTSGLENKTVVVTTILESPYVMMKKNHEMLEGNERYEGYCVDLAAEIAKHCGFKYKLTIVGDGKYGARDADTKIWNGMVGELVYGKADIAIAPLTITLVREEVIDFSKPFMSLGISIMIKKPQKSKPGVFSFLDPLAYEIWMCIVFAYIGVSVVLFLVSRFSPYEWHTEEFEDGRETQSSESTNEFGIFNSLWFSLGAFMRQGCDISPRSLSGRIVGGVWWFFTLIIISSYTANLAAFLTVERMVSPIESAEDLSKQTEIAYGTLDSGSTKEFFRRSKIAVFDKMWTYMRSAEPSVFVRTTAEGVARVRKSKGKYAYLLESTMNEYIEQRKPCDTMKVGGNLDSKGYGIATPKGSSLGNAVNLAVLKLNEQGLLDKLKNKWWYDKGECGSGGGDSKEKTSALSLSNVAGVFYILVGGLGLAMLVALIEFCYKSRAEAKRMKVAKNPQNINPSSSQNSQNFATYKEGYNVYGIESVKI", "test": "Whole-cell patch-clamp of kainate-induced currents in isolated hippocampal CA1 pyramidal neurons", "format": "cell-based, Wistar rat", "conditions": "for CI-AMPARs % inhibition at 100 µM: 100 µM compound; for CI-AMPARs % inhibition at 100 µM / inhibition at 100 µM: currents induced by 100 µM kainate, −80 mV, mean ± SD, N = 5; for inhibition at 100 µM: read-out: CI-AMPARs % inhibition at 100 µM, 100 µM compound; for inhibition at 300 µM: 300 µM compound, read-out: percentage of inhibition at 300-µM concentration", "description": "All experimental procedures were approved by the Animal Care and Use Committee of the I.M. Sechenov Institute of Evolutionary Physiology and Biochemistry of the Russian Academy of Sciences. Wistar rats (13–19 days old) were anesthetized with sevoflurane and then decapitated. Maximum effort was made to minimize the number of animals used. Brains were removed quickly and cooled to 2–4°C in an ice bath. […] The antagonism of CI-AMPARs was studied on pyramidal neurons from the CA1 area of the hippocampus.\nSeries resistance of about 20 MΩ was compensated by 70–80% and monitored during experiments. Currents were recorded using an EPC-8 amplifier (HEKA Electronics, Lambrecht, Germany), filtered at 5 kHz, sampled, and stored on a personal computer. Drugs were applied using the RSC-200 perfusion system (BioLogic Science Instruments, Claix, France) under computer control. The solution exchange time in the whole-cell mode was 50–60 ms. […] The pipette solution contained (in mM) CsF 100, CsCl 40, NaCl 5, CaCl2 0.5, EGTA 5, and HEPES 10 (pH was adjusted to 7.2 with CsOH). Experiments were performed at room temperature (22–24°C). […] Lamotrigine, topiramate, levetiracetam, felbamate, carbamazepine, tiagabin, vigabatrin, zonisamide, and gabapentin were purchased from Tocris Bioscience (Bristol, United Kingdom). Perampanel was from MedChemExpress (Stockholm, Sweden). Kinetics of transient processes of more than 20-ms duration was approximated by exponential functions. Experiments were performed at −80 mV holding voltage. All experimental data are presented as mean ± SD estimated from at least four experiments. Significance of the effects was tested with paired t test. Differences were considered significant at p < 0.05. 3D structures of compounds were calculated by the ZMM software (zmmsoft.ca)."}, "CP-AMPARs": {"test_system": "CP-AMPARs", "test": "Whole-cell patch-clamp of kainate-induced currents in isolated striatal giant interneurons", "format": "cell-based, Wistar rat", "conditions": "100 µM compound, currents induced by 100 µM kainate, −80 mV, mean ± SD, N = 5", "description": "All experimental procedures were approved by the Animal Care and Use Committee of the I.M. Sechenov Institute of Evolutionary Physiology and Biochemistry of the Russian Academy of Sciences. Wistar rats (13–19 days old) were anesthetized with sevoflurane and then decapitated. Maximum effort was made to minimize the number of animals used. Brains were removed quickly and cooled to 2–4°C in an ice bath. […] Single neurons were freed from slices by vibrodissociation ([Vorobjev, 1991]). The antagonism of CP-AMPARs was studied on striatal giant interneurons ([Bernard et al., 1997]; [Gotz et al., 1997]), which were identified by their shape and size. […] The antagonism of CI-AMPARs was studied on pyramidal neurons from the CA1 area of the hippocampus.\nSeries resistance of about 20 MΩ was compensated by 70–80% and monitored during experiments. Currents were recorded using an EPC-8 amplifier (HEKA Electronics, Lambrecht, Germany), filtered at 5 kHz, sampled, and stored on a personal computer. Drugs were applied using the RSC-200 perfusion system (BioLogic Science Instruments, Claix, France) under computer control. The solution exchange time in the whole-cell mode was 50–60 ms. The extracellular solution contained (in mM) NaCl 143, KCl 5, MgCl2 2.0, CaCl2 2.5, D-glucose 18, and HEPES 10 (pH was adjusted to 7.3 with HCl). The pipette solution contained (in mM) CsF 100, CsCl 40, NaCl 5, CaCl2 0.5, EGTA 5, and HEPES 10 (pH was adjusted to 7.2 with CsOH). Experiments were performed at room temperature (22–24°C). […] Lamotrigine, topiramate, levetiracetam, felbamate, carbamazepine, tiagabin, vigabatrin, zonisamide, and gabapentin were purchased from Tocris Bioscience (Bristol, United Kingdom). Perampanel was from MedChemExpress (Stockholm, Sweden). Kinetics of transient processes of more than 20-ms duration was approximated by exponential functions. Experiments were performed at −80 mV holding voltage. All experimental data are presented as mean ± SD estimated from at least four experiments. Significance of the effects was tested with paired t test. Differences were considered significant at p < 0.05. 3D structures of compounds were calculated by the ZMM software (zmmsoft.ca)."}, "hGluA1-4 receptors": {"test_system": "hGluA1-4 receptors", "set-up": "method as in Fukushima et al. (2020)", "conditions": "ref Fukushima et al. (2020); cited from earlier work"}}}
{"smiles": "Cc1ccsc1C(=CCCN1CCCC(C(=O)O)C1)c1sccc1C", "note": "(stereo not drawn) [Tiagabin]", "values": [{"measurement": "CI-AMPARs % inhibition at 100 µM", "setting": "CI-AMPARs", "value": "14 ± 2", "unit": "%"}, {"measurement": "inhibition at 100 µM", "setting": "CI-AMPARs", "value": "≤ 20", "unit": "%"}, {"measurement": "CP-AMPARs % inhibition at 100 µM", "setting": "CP-AMPARs", "value": "10 ± 2", "unit": "%"}, {"measurement": "CP-AMPARs % inhibition at 100 µM", "setting": "CP-AMPARs; listed as tiagabin", "value": "≤ 20", "unit": "%"}]}
{"smiles": "C=CC(N)CCC(=O)O", "note": "(stereo not drawn) [Vigabatrin]", "values": [{"measurement": "CI-AMPARs % inhibition at 100 µM", "setting": "CI-AMPARs", "value": "8 ± 1", "unit": "%"}, {"measurement": "CI-AMPARs % inhibition at 100 µM", "setting": "CI-AMPARs; listed as vigabatrin", "value": "≤ 20", "unit": "%"}, {"measurement": "CP-AMPARs % inhibition at 100 µM", "setting": "CP-AMPARs", "value": "10 ± 3", "unit": "%"}, {"measurement": "CP-AMPARs % inhibition at 100 µM", "setting": "CP-AMPARs; listed as vigabatrin", "value": "≤ 20", "unit": "%"}]}
{"smiles": "NS(=O)(=O)Cc1noc2ccccc12", "note": "[Zonisamide]", "values": [{"measurement": "CI-AMPARs % inhibition at 100 µM", "setting": "CI-AMPARs", "value": "11 ± 2", "unit": "%"}, {"measurement": "inhibition at 100 µM", "setting": "CI-AMPARs", "value": "≤ 20", "unit": "%"}, {"measurement": "CP-AMPARs % inhibition at 100 µM", "setting": "CP-AMPARs", "value": "11 ± 3", "unit": "%"}, {"measurement": "CP-AMPARs % inhibition at 100 µM", "setting": "CP-AMPARs; listed as zonisamide", "value": "≤ 20", "unit": "%"}]}
{"smiles": "CCC1(C)CC(=O)NC1=O", "note": "(stereo not drawn) [ethosuximide]", "values": [{"measurement": "inhibition at 300 µM", "setting": "CI-AMPARs", "value": "≤ 20", "unit": "%"}]}
{"smiles": "O=C1CNC(=O)N1", "note": "[hydantoin]", "values": [{"measurement": "inhibition at 300 µM", "setting": "CI-AMPARs", "value": "≤ 20", "unit": "%"}]}
{"smiles": "COC[C@@H](NC(C)=O)C(=O)NCc1ccccc1", "note": "[lacosamide]", "values": [{"measurement": "activity against hGluA1-4 receptors", "setting": "hGluA1-4 receptors", "value": "did not find significant activity"}]}
{"smiles": "CCC1(c2ccccc2)C(=O)NC(=O)NC1=O", "note": "[phenobarbital]", "values": [{"measurement": "activity against hGluA1-4 receptors", "setting": "hGluA1-4 receptors", "value": "did not find significant activity"}]}
{"smiles": "CCC1(c2ccccc2)C(=O)NCNC1=O", "note": "[primidone]", "values": [{"measurement": "inhibition at 300 µM", "setting": "CI-AMPARs", "value": "≤ 20", "unit": "%"}]}
{"smiles": "CCCC(CCC)C(=O)O", "note": "[valproate]", "values": [{"measurement": "activity against hGluA1-4 receptors", "setting": "hGluA1-4 receptors", "value": "did not find significant activity"}]}
